In brackets after ≈: the same amount, converted by molar mass. Several values for one entry are separate records, joined by “and”; a condition that tells them apart may be missing. Equal values may be shown once.
How the values were obtained:
S. aureus Mu3 (MRSA) = test: microbe, parasite or virus in culture
Experimental: (§1) (10−4 M final concentrations). At selected time intervals, 100 μl of reaction mixture was collected, quenched by 200 μl 95% EtOH, and adjusted at pH 2 to prevent peptide adsorption to serum proteins. […] Supernatants were analyzed by RP-HPLC on an Xbridge C18 column with a linear gradient of water, 0.08% TFA, and acetonitrile with 1% TFA. HPLC peak areas were used to calculate the percentages of intact compound remaining at the various time points. MIC and MBC values were determined in triplicate in many ESKAPE clinical isolates, including a dozen MDR S. aureus, by the broth microdilution method. Peptidomimetics and antibiotics were assayed in a concentration range of 1 to 128 μM. The bacterial inoculum (5 × 10^5 colony-forming units [CFUs]/well) was prepared in MHB or CAMHB (150 μl). A Biotek Synergy 2 spectrophotometer was used to record the results after 18–20 h incubation at 35°C (±2°C). […] After every hour of culture for 4 h, serial dilutions were plated on BHI plates and incubated overnight at 37°C, and then the CFUs were counted and expressed as log CFU/ml. Phosphate-buffered saline (PBS)-exposed S. aureus MRSA was included as a control.

S. aureus Newman = test: microbe, parasite or virus in culture
Experimental: as §1

E. faecium Aus0004 = conditions: Aus0004
Experimental: as §1

[1] = Stability in human serum (half-life); type: in vitro ADME; conditions: 25% human serum, pre-incubated 15 min at 37°C, peptide 10^−4 M, RP-HPLC peak areas, mean of biological triplicates
Experimental: as §1
(§2) Supplementary file pbio.3000337.s013.docx: S7 Table Peptide half-lives in human and mouse sera. […] Peptide amounts and half-lives were determined by HPLC. Experiments were conducted on 25% human or mouse sera. Values are shown in minutes. The mean values correspond to biological triplicates. HPLC, high pressure liquid chromatography. (DOCX) Click here for additional data file.

[2] = Stability in mouse serum (half-life); type: in vitro ADME; conditions: 25% mouse serum, pre-incubated 15 min at 37°C, peptide 10^−4 M, RP-HPLC peak areas, mean of biological triplicates
Experimental: as §1, §2

S. aureus MRSA = test: Cutaneous abscess mouse model (lesion size, CFU); type: in vivo, mice; conditions: cutaneous abscesses from MRSA in mice; IV 24 h post-infection, 1.5 mg.kg-1; individual values
Experimental: (§3) For the cutaneous abscess model, the mice were randomly divided into 5 sets. The mice were anesthetized with isoflurane, their dorsal fur shaved, and their skin disinfected with 70% ethanol. An overnight culture of S. aureus MRSA or P. aeruginosa LESB58 was washed with 0.9% NaCl, and then a subcutaneous injection of 2 × 10^9 CFUs and an equal amount of sterile Cytodex microcarrier beads (20 mg.ml^−1, Sigma) for S. aureus MRSA, or 10^8 CFUs for P. aeruginosa were injected into the shaved area. […] Mice were monitored every day and then euthanized with CO2 on Day 6 or on Day 3. Abscesses were excised, measured, and homogenized in PBS using an Ultra-Turax. Serial dilutions of the samples were plated on BHI (MRSA) or 2YT medium (LESB58) plates and then incubated overnight at 37°C. Afterward, the CFUs were counted and expressed as log CFU/ml. Dermonecrosis areas were calculated according to the formula π × L × W. ATP levels were determined with an ATP assay kit (Promega) according to manufacturer instructions on sets of 5 colonies harboring the SCV phenotype, and sets of 5 colonies harboring a normal phenotype, after growth on BHI plates.

S. aureus = test: Intracellular ATP levels of SCV versus normal colonies from skin abscesses; type: cell-based; conditions: individual values
Experimental: as §3

S. aureus N315 (MRSA) = test: microbe, parasite or virus in culture; conditions: Staphylococcus aureus, MRSA
Experimental: as §1

MRSA (Mu3) [3] = test: microbe, parasite or virus in culture
Experimental: (§4) For 15 d in MHB, MICs were determined daily for each pseudopeptide and their antibiotic controls. This was done using cells from the well in which the compound concentration was one-half of the MIC (1/2MIC). For each compound, the 1/2MIC well from the previous day’s MIC assay plate was re-suspended and the bacteria grown to a density of about 10^8 cells ml−1. The suspension was diluted in MHB or CAMHB (10^6 cells/ml) and then used to determine the MIC of the same compound determined by micro broth dilution. All MIC measurements were performed in duplicate. Aliquots of the 5 × 10^4 cell/ml dilutions for each 1/2MIC well were periodically plated on MHB and incubated at 35°C for 18 h to verify cell density by colony counts and for visual inspection of colony phenotypes. To control compound stability, peptide solution MICs were determined during and at the end of the 15 d and were compared to cells unexposed to antibiotics. In vivo resistance was also assessed in treated mice (1.5 mg.kg^−1) for 4 d (sepsis) or 6 d (skin abscesses). […] The broth microdilution method was performed as per EUCAST recommendations on 5 independent colonies per mouse (3 mice per set, 15 colonies per drug tested). For severe sepsis and subcutaneous abscesses, in vivo resistance was determined by plating aliquots of crude kidney extracts or abscesses on plates containing 1-, 2-, 4-, or 8-fold the peptide MICs 7 or 3 d post infections, respectively.

MSSA (Newman) = test: microbe, parasite or virus in culture; conditions: Staphylococcus aureus
Experimental: as §4

MRSA (Mu3) [4] = test: microbe, parasite or virus in culture; conditions: Staphylococcus aureus, MRSA
Experimental: as §4

MRSA = test: Severe sepsis mouse model, survival; type: in vivo; conditions: mice, approximately 2 × 10^9 CFUs MRSA IV; 4 IV doses of 0.5 mg.kg^−1 at 2, 24, 48, 72 h
From the text: Tolerance and toxicity studies were done on male Swiss mice (CD-1 Crl: CD-1 [ICR] IGS; Charles River). These were 7 to 10 weeks old and weighed an average of 37.2 g. All experimental protocols were approved by the Adaptive Therapeutics Animal Care and Use Committee (APAFiS #4508-2016031l15541258 v2). For the sepsis model, we used female Swiss mice (Janvier Labs), 6 to 8 weeks old and weighing approximately 30 g. Experiments were monitored in the ARCHE-BIOSIT animal lab in Rennes, in biological duplicate. We used Groups of 5 mice for the mild and the severe sepsis models with MRSA. Mice were IV inoculated with 150 μl of MRSA suspensions in 0.9% NaCl containing approximately 5 × 10^8 CFUs for the “mild” sepsis and approximately 2 × 10^9 CFUs for the “severe” sepsis, respectively. […] Mice survival was monitored for 4 d (“severe” sepsis) or 14 d (“mild” sepsis), and the statistical significance of difference(s) between the groups was evaluated using the Wilcoxon test. P < 0.05 was considered significant. Two weeks (“mild” sepsis) or 4 d (“severe” sepsis) after inoculation, mice were euthanized with CO2.

S. aureus 33845 = test: microbe, parasite or virus in culture; conditions: Staphylococcus aureus
Experimental: as §1
(§5) Supplementary file pbio.3000337.s007.docx: S1 Table Antibacterial activity of the 4 peptidomimetics focusing on 9 S. aureus MDR clinical isolates. Clinical isolates BCB/POE and 740404 DUN are from human sepsis. The other strains are from catheter infections or suppurating wounds. Brilacidin was used as a control. MDR, multidrug resistant. (DOCX) Click here for additional data file.

S. aureus 66534 E = test: microbe, parasite or virus in culture; conditions: Staphylococcus aureus
Experimental: as §1, §5

S. aureus 702697 HOU = test: microbe, parasite or virus in culture; conditions: Staphylococcus aureus
Experimental: as §1, §5

S. aureus 740404 DUN = test: microbe, parasite or virus in culture; conditions: Staphylococcus aureus
Experimental: as §1, §5

S. aureus BCB/POE = test: microbe, parasite or virus in culture; conditions: Staphylococcus aureus
Experimental: as §1, §5

S. aureus COB = test: microbe, parasite or virus in culture; conditions: Staphylococcus aureus
Experimental: as §1, §5

S. aureus FORT = test: microbe, parasite or virus in culture; conditions: Staphylococcus aureus
Experimental: as §1, §5

S. aureus PM64 = test: microbe, parasite or virus in culture; conditions: Staphylococcus aureus, PM64
Experimental: as §1, §5

S. aureus ROUS = test: microbe, parasite or virus in culture; conditions: Staphylococcus aureus
Experimental: as §1, §5

Escherichia coli 13090 = system: Escherichia coli 13090
Experimental: as §1

Escherichia coli K12 = conditions: E. coli K12
Experimental: as §1

Escherichia coli ML35P = conditions: E. coli ML35P
Experimental: as §1

P. aeruginosa 15643 = system: P. aeruginosa 15643
Experimental: as §1

P. aeruginosa PA14 = conditions: P. aeruginosa PA14
Experimental: as §1

P. aeruginosa LESB58 [5] = conditions: P. aeruginosa strain LESB58; biological triplicates
Experimental: as §1, with “μM.” for “μM. The bacterial inoculum (5 × 10^5 colony-forming units [CFUs]/well) was prepared in MHB or CAMHB (150 μl). A Biotek Synergy 2 spectrophotometer was used to record the results after 18–20 h incubation at 35°C (±2°C).”, “Phosphate-buffered saline (PBS)-exposed S. aureus MRSA was included as a control.” left out
For 15 d in MHB, MICs were determined daily for each pseudopeptide and their antibiotic controls. […] The suspension was diluted in MHB or CAMHB (10^6 cells/ml) and then used to determine the MIC of the same compound determined by micro broth dilution. […] To control compound stability, peptide solution MICs were determined during and at the end of the 15 d and were compared to cells unexposed to antibiotics. In vivo resistance was also assessed in treated mice (1.5 mg.kg^−1) for 4 d (sepsis) or 6 d (skin abscesses). […]

P. aeruginosa LESB58 [6] = test: Cutaneous abscess mouse model (CFU); type: in vivo, mice; conditions: mice, P. aeruginosa LESB58; 9 mg.kg^−1 subcutaneous multiple doses; day 3
Experimental: as §3

[7] = broth microdilution, 3 independent experiments

CCCCCCCCCC(=O)N[C@@H](Cc1c[nH]c2ccccc12)C(=O)N[C@H](CC(N)=O)C(=O)N[C@@H](CC(=O)O)C(=O)N[C@@H]1C(=O)NCC(=O)N[C@@H](CCCN)C(=O)N[C@@H](CC(=O)O)C(=O)N[C@H](C)C(=O)N[C@@H](CC(=O)O)C(=O)NCC(=O)N[C@H](CO)C(=O)N[C@@H]([C@H](C)CC(=O)O)C(=O)N[C@@H](CC(=O)c2ccccc2N)C(=O)O[C@@H]1C [Daptomycin, daptomycin, reference compound]
MIC (S. aureus Mu3 (MRSA); Mu3): 0.5 (1) μM
MIC (S. aureus Newman; Newman): 0.25 (0.5) μM
MIC (E. faecium Aus0004): 0.5 (1) μM
half-life [1]: 52.3 ± 6.67 h
half-life [2]: > 58.3 h

CN[C@H](CC(C)C)C(=O)N[C@H]1C(=O)N[C@@H](CC(N)=O)C(=O)N[C@H]2C(=O)N[C@H]3C(=O)N[C@H](C(=O)N[C@H](C(=O)O)c4cc(O)cc(O)c4-c4cc3ccc4O)[C@H](O)c3ccc(c(Cl)c3)Oc3cc2cc(c3O[C@@H]2O[C@H](CO)[C@@H](O)[C@H](O)[C@H]2O[C@H]2C[C@](C)(N)[C@H](O)[C@H](C)O2)Oc2ccc(cc2Cl)[C@H]1O [Vanco]
Area of dermonecrosis (S. aureus MRSA): 88.6 mm2 and 44.4 mm2 and 88.5 mm2 and 82.8 mm2 and 67.1 mm2 and 13 mm2 and 197.8 mm2 and 164.7 mm2 and 166.7 mm2 and 90 mm2
Intracellular ATP level, 'normal growing' (S. aureus; 'normal growing' colonies from MRSA abscesses of mice treated IV with 1.5 mg.kg-1): 122379 AU and 119801 AU and 111813 AU and 113023 AU and 103234 AU
Intracellular ATP level, SCV (S. aureus; SCV from MRSA abscesses of mice treated IV with 1.5 mg.kg-1): 20326.9 AU and 5706.67 AU and 6923.08 AU and 10333.3 AU and 15090.9 AU

CN[C@H](CC(C)C)C(=O)N[C@H]1C(=O)N[C@@H](CC(N)=O)C(=O)N[C@H]2C(=O)N[C@H]3C(=O)N[C@H](C(=O)N[C@H](C(=O)O)c4cc(O)cc(O)c4-c4cc3ccc4O)[C@H](O)c3ccc(c(Cl)c3)Oc3cc2cc(c3O[C@@H]2O[C@H](CO)[C@@H](O)[C@H](O)[C@H]2O[C@H]2C[C@](C)(N)[C@H](O)[C@H](C)O2)Oc2ccc(cc2Cl)[C@H]1O [Vancomycin, vancomycin]
MIC (S. aureus Mu3 (MRSA); Staphylococcus aureus, MRSA): 1 µM
MIC (S. aureus N315 (MRSA)): 2 µM
MIC (S. aureus Newman; Staphylococcus aureus, NEWMAN): 0.5 µM
MIC (MRSA (Mu3) [3]; MRSA (Mu3), d14 of serial passages at sub-MIC): 1 (1.4) μM
MIC (MRSA (Mu3) [3]; Staphylococcus aureus, MRSA): 1 µM (≈ 1.45 µg/mL)
MIC (MSSA (Newman); MSSA (Newman), d0 of serial passages): 0.5 µM (≈ 0.725 µg/mL)
MIC (MSSA (Newman); MSSA|NEWMAN, d14 of serial passages at sub-MIC): 1 µM (≈ 1.45 µg/mL)
MIC (MRSA (Mu3) [4]): 1 µM (≈ 1.45 µg/mL)
MIC (MRSA (Mu3) [4]; 24 h): 1 µM (≈ 1.45 µg/mL)
Survival in severe sepsis (MRSA): much less effective

N=C(N)NCCCCC(=O)Nc1cc(C(F)(F)F)cc(NC(=O)c2cc(C(=O)Nc3cc(C(F)(F)F)cc(NC(=O)CCCCNC(=N)N)c3O[C@@H]3CCNC3)ncn2)c1O[C@@H]1CCNC1 [brilacidin, reference compound]
MIC (S. aureus 33845): 1 µg/mL
MIC (S. aureus 66534 E): 1 µg/mL
MIC (S. aureus 702697 HOU): 1 µg/mL
MIC (S. aureus 740404 DUN): 1 µg/mL
MIC (S. aureus BCB/POE): 1 µg/mL
MIC (S. aureus COB): 1 µg/mL
MIC (S. aureus FORT): 1 µg/mL
MIC (S. aureus PM64): 1 µg/mL
MIC (S. aureus ROUS): 1 µg/mL
Survival in severe sepsis (MRSA): cured the infected animals

colistin
MBC/MIC (Escherichia coli 13090; E. coli 13090): 1
MIC (Escherichia coli 13090; E. coli 13090, clinical strain, Caen hemoculture, broth microdilution, 3 independent experiments): 1 (1.3) μM
MBC/MIC (Escherichia coli K12): 1
MIC (Escherichia coli K12; [7]): 0.5 (0.65) μM
MBC/MIC (Escherichia coli ML35P): 1
MIC (Escherichia coli ML35P; [7]): 0.5 (0.65) μM
MBC/MIC (P. aeruginosa 15643; P. aeruginosa 15643): 2
MIC (P. aeruginosa 15643; P. aeruginosa 15643, clinical strain, Caen hemoculture, broth microdilution, 3 independent experiments): 0.5 (0.65) μM
MBC/MIC (P. aeruginosa PA14): 2
MIC (P. aeruginosa PA14; [7]): 0.5 (0.65) μM
MIC (P. aeruginosa LESB58 [5]): 1 µM
Number of bacteria in abscess (P. aeruginosa LESB58 [6]): lowered the number of bacteria
